The subject of experiment [1] is Pyricularia oryzae (rice blast). The experiment can be described thus: whole plant or invertebrate. As to conditions: Pyricularia oryzae, foliar, read-out: PYRIOR disease control, host rice; foliar spray; 400 ppm (+++: 100 ppm). The format is in vivo.
The subject of experiment [2] is aster leafhopper (Macrosteles fascifrons). The experiment can be described thus: whole plant or invertebrate. As to conditions: Macrosteles fascifrons, 24 h, read-out: ALH percent mortality. The format is in vivo. The procedure: (§1) The compounds identified in Table I were tested for miticidal and insecticidal activity against eight species. The following abbreviations are used in the Table III:
ALH refers to aster leafhopper
(§2) In conducting evaluations of insecticidal activity, each test compound was formulated as a 400 ppm solution, and this solution was then diluted with water to give lesser concentrations. The 400 ppm solution was prepared by combining 19.2 mL of 0.05% solution of Tween 20 (polyoxyethylene (20) sorbitan monolaurate) in water with a solution of 8 mg of the compound in 0.8 mL of acetone/EtOH (9/1).
Activity against aster leafhopper (Macrosteles fascifrons) was tested as follows. The test was run using concentrations of 400 ppm and 50 ppm. One ounce plastic cups containing a cotton wick was sprayed with 0.4 mL of formulated material using a flat-fan nozzle. The excess moisture was allowed to evaporate. Then five to ten carbon dioxide anesthetized adult leafhoppers were added to each cup. The cups were capped and held at room temperature for 24 hours. Percent mortality was then determined.

The test system of experiment [3] is beet armyworm (Spodoptera exiqua). The experiment can be described thus: Activity against beet armyworm. The format is in vivo. As to conditions: Spodoptera, 144 h, 6 days, read-out: BAW activity (rated on live and dead larvae and size of live larvae). The procedure:
as §1
BAW refers to beet armyworm
as §2
Activity against beet armyworm (Spodoptera exiqua) was evaluated as follows. The test is run using concentrations of 400 ppm and 50 ppm. A general purpose lepidoptera artificial diet was diluted to half strength with a 5% non nutritive agar. 8 mL of this diet material was dispensed into one ounce diet cups. One hour prior to treatment, 35 to 40 eggs were dispensed onto the diet surface. The cups were then sprayed with formulated material through a flat-fan nozzle. Treated cups were air dried prior to sealing with plastic caps. The cups were held for 6 days at room temperature. Activity was then rated based on the total number of live and dead larvae, and on the size of live larvae.

The test system of experiment [4] is Southern corn rootworm (Diabrotica undecimpuctata howardi Barber). The experiment can be described thus: whole plant or invertebrate. As to conditions: 400 ppm, soil concentration of 24 ppm, 3-4 days, read-out: SCRW mortality. The format is in vivo. The protocol:
as §1
SCRW refers to southern corn rootworm
as §2
Activity on Southern corn rootworm (Diabrotica undecimpuctata howardi Barber) was evaluated by adding one mL of test solution containing a predetermined concentration of test compound to a cup containing a kernel of corn in 16 g of sterile soil. This produces a soil concentration of 24 ppm. After 1.5 to 2 hours of drying, five 4th instar corn rootworm larvae were added to the individual cups. Mortality was measured at 3-4 days by emptying the cup onto a pan and inspecting the soil for live rootworms.

Experiment [5] deals with tobacco budworm (Heliothis virescens). In words: Activity against tobacco budworm. The format is in vivo. As to conditions: Heliothis virescens, 144 h, 6 days, read-out: TBW activity (rated on live and dead larvae and size of live larvae). The procedure:
as §1
TBW refers to tobacco budworm
as §2
Activity against tobacco budworm (Heliothis virescens) was evaluated as follows. A general purpose lepidoptera artificial diet was diluted to half strength with a 5% non nutritive agar. 8 mL of this diet material was dispensed into each one ounce diet cup. One hour prior to treatment 18 to 20 eggs were dispensed onto the diet surface. The cups were then sprayed with formulated material through a flat-fan nozzle. The test was run using concentrations of 400 ppm and 50 ppm. Treated cups were air dried prior to sealing with plastic caps. The cups were held for 6 days at room temperature. Activity was then rated based on the total number of live and dead larvae, and on the size of live larvae.

Experiment [6] relates to German cockroach (Blattella germanicus). In words: whole plant or invertebrate. The format is in vivo. As to conditions: 240 h, ten days, read-out: GECR activity (rated on live and dead insects). The procedure:
as §1
GECR refers to German cockroach
as §2
Activity against German cockroach (Blattella germanicus) was evaluated as follows. 8 mL of alfalfa based green insect diet material was dispensed into a one ounce diet cup. The cups were then sprayed with formulated material through a flat-fan nozzle. The test was run using concentrations of 400 ppm and 50 ppm. Treated cups were air dried for 24 hours and infested with five late third or early fourth instar German cockroaches. The cups were capped and held for ten days in an environmental growth chamber at a temperature of […]. Activity was then rated based on the total number of live and dead insects.

The subject of experiment [7] is cotton aphid (Aphis gossypii). The experiment can be described thus: whole plant or invertebrate. As to conditions: 72 h; for mortality at 50 ppm: read-out: CA activity (percent based on aphids present in plants sprayed with solvent alone), 50 ppm, squash plants, three days after treatment; for mortality at 400 ppm: read-out: CA activity (percent based on aphids present in plants sprayed with solvent alone), 400 ppm, squash plants, three days after treatment.

Experiment [8] has as its system two spotted spider mite (Tetranychus urticae). In words: whole plant or invertebrate. As to conditions: 72 h; for mortality at 50 ppm: read-out: TSSM activity (percent based on mites present in plants sprayed with solvent alone), 50 ppm, squash plants, three days after treatment; for mortality at 400 ppm: read-out: TSSM activity (percent based on mites present in plants sprayed with solvent alone), 400 ppm, squash plants, three days after treatment.

In experiment [9] the test system is Plasmopara viticola (downy mildew). The experiment can be described thus: Foliar spray fungicide test, Plasmopara viticola (downy mildew) on grape. As to conditions: for pest or weed control at 400 µg/mL: Plasmopara viticola, foliar, read-out: PLASVI disease control.
Experimental: (§3) The test compounds were formulated for application by dissolving 50 mg of the compound into 1.25 ml of solvent. The solvent was prepared by mixing 50 ml of "Tween 20" (polyoxyethylene (20) sorbitan monolaurate emulsifier) with 475 ml of acetone and 475 ml of ethanol. The solvent/compound solution was diluted to 125 ml with deionized water. The resulting formulation contains 400 ppm test chemical. Lower concentrations were obtained by serial dilution with the solvent-surfactant mixture.
(§4) The formulated test compounds were applied by foliar spray.
(§5) The formulated technical compounds were sprayed on all foliar surfaces of the host plants to past run-off. Single pots of each host plant were placed on raised, revolving pedestals in a fume hood. Test solutions were sprayed on all foliar surfaces. All treatments were allowed to dry and the plants were inoculated with the appropriate pathogens within 24 hours.
(§6) The effectiveness of test compounds in controlling disease was rated using the following scale.
The subject of experiment [10] is Leptosphaeria nodorum (glume blotch). The experiment can be described thus: Foliar spray fungicide test, Leptosphaeria nodorum (glume blotch) on wheat. As to conditions: Parastagonospora nodorum, in Triticum aestivum, foliar, read-out: LETPNO disease control, host wheat, 400 ppm (+++: 100 ppm).
Experimental: as §3, §4, §5, §6
For experiment [11], the system named is Puccinia recondita tritici (leaf rust). The experiment can be described thus: Foliar spray fungicide test, Puccinia recondita tritici (leaf rust) on wheat. As to conditions: Puccinia recondita, in Triticum aestivum, foliar, read-out: PUCCRT disease control, host wheat, 400 ppm (+++: 100 ppm).
Experimental: as §3
The formulated test compounds were applied by foliar spray. The following plant pathogens and their corresponding plants were employed.
Puccinia recondita PUCCRT wheat
as §5, §6
The test system of experiment [12] is Erysiphe graminis tritici (powdery mildew). The experiment can be described thus: Foliar spray fungicide test, Erysiphe graminis tritici (powdery mildew) on wheat. As to conditions: Blumeria graminis, in Triticum aestivum, foliar, read-out: ERYSGT disease control, host wheat, 400 ppm (+++: 100 ppm).

Seven compounds from patent US5326766A, “4-(2-(4-(2-pyridinyloxy)phenyl)ethoxy)quinazoline and analogues thereof” (priority 1992, dated 1994) can be followed below.

Structures are written as SMILES.

As to `Fc1cccc2c(NCCc3ccc(Oc4ncc(C(F)(F)F)cc4Cl)cc3)ncnc12` [Compound 1], the pest or weed control at 400 µg/mL in experiment [1], in [9], in [10], in [11] and in experiment [12] was 90 to 100% each time. Also, the mortality at 50 ppm in experiment [2] came out at 100%; in experiment [6] it was 0%; in experiment [7], 0%; in experiment [8] it was 0%. Further, the mortality at 400 ppm was 100% in [2], 20% in experiment [6], 0% in [7] and 0% in experiment [8]. The pest or weed control at 50 ppm in [3] and in experiment [5] was 100% throughout. For the same compound, the figures for the pest or weed control at 400 ppm in experiment [3] and in experiment [5] were 100% and 0%, respectively. In experiment [4], the mortality at 24 ppm came out at 80%.

Take `Fc1cc(C(F)(F)F)cnc1Oc1ccc(CCOc2ncnc3c(F)cccc23)cc1` [Compound 5]: the pest or weed control at 400 µg/mL in experiment [1] was 90 to 100%; in experiment [9] it was 90 to 100%; in experiment [10], 0 to 19%; in experiment [11], 90 to 100%; in experiment [12], 90 to 100%. Moreover, the mortality at 400 ppm in experiment [2], in experiment [6], in experiment [7] and in experiment [8] was 100% throughout. For the same compound, the pest or weed control at 400 ppm in experiment [3] and in experiment [5] was 100% in each case. The mortality at 24 ppm in experiment [4] was found to be 100%.

Turning to `Fc1cc(C(F)(F)F)cnc1Oc1ccc(CCNc2ncnc3c(F)cccc23)cc1` [Compound 6], the pest or weed control at 400 µg/mL in experiment [1], in experiment [9], in [10], in [11] and in experiment [12] was 90 to 100% throughout. For the same compound, the mortality at 50 ppm in [2] was 100%; in experiment [6] it was 40%; in experiment [7], 0%; in experiment [8], 0%. For the same compound, the mortality at 400 ppm came out at 100% in [2], 20% in [6], 0% in experiment [7] and 0% in experiment [8]. Further, the pest or weed control at 50 ppm in experiment [3] and in experiment [5] was 100% in each case. Further, the pest or weed control at 400 ppm in [3] and in [5] was 100% throughout. For the same compound, in experiment [4], the mortality at 24 ppm was determined as 0%.

Regarding `Fc1cc(C(F)(F)F)cnc1Oc1ccc(CCOc2ncnc3cccc(F)c23)cc1` [Compound 7], the pest or weed control at 400 µg/mL in experiment [1], in [9], in [10], in [11] and in experiment [12] was 0 to 19% each time. Moreover, the mortality at 50 ppm in experiment [2] turned out to be 100%; in experiment [6] it was 0%; in [7], 100%; in experiment [8], 100%. In addition, the mortality at 400 ppm in [2] stood at 80%; in [6] it was 0%; in experiment [7] it was 100%; in experiment [8] it was 100%. For the same compound, the pest or weed control at 50 ppm in [3] and in [5] was 100% each time. In addition, the pest or weed control at 400 ppm in experiment [3] and in [5] was 100% in each case. Besides, the mortality at 24 ppm in experiment [4] was found to be 0%.

With `FC(F)(F)c1ccnc(Oc2ccc(CCOc3ncnc4ccccc34)cc2)c1` [Compound 13], the pest or weed control at 400 µg/mL in experiment [1] is 20 to 89%; in experiment [9] it was 90 to 100%; in [10] it was 90 to 100%; in experiment [11], 90 to 100%; in [12] it was 90 to 100%. In addition, the mortality at 400 ppm in [2], in experiment [7] and in experiment [8] was 100% each time. Besides, the pest or weed control at 400 ppm in experiment [3] and in experiment [5] was 100% throughout.

As for `Fc1cccc2c(OCCc3ccc(Oc4ncc(Cl)cc4Cl)cc3)ncnc12` [Compound 41], the pest or weed control at 400 µg/mL in experiment [1] lay within 90 to 100%; in [10], 20 to 89%; in [11], 90 to 100%; in experiment [12], 90 to 100%. Moreover, the mortality at 400 ppm in experiment [2], in experiment [7] and in [8] was 100% throughout. Further, the pest or weed control at 400 ppm in [3] and in experiment [5] was 100% throughout. For the same compound, the PLASVI disease control entry in [9] (host grape, foliar spray, 400 ppm (+++: 100 ppm)) is “++ +”.

Take `Fc1cccc2ncnc(OCCc3ccc(Oc4nc(Cl)c(Cl)cc4Cl)cc3)c12` [Compound 43]: the pest or weed control at 400 µg/mL in experiment [1], in experiment [10], in experiment [11] and in experiment [12] was 0 to 19% in each case. The mortality at 50 ppm in experiment [2], in experiment [6], in experiment [7] and in experiment [8] was 0% each time. In addition, the mortality at 400 ppm in [2], in experiment [6], in experiment [7] and in experiment [8] was 0% throughout. For the same compound, the pest or weed control at 50 ppm in [3] and in [5] was 0% in each case. The pest or weed control at 400 ppm in experiment [3] and in [5] was 0% in each case. For the same compound, the mortality at 24 ppm in [4] amounted to 0%.
